According to PMC9743128, “Phenotype-based screening rediscovered benzopyran-embedded microtubule inhibitors as anti-neuroinflammatory agents by modulating the tubulin–p65 interaction” (Experimental & Molecular Medicine, 2022):

Columns and labels:
[1] = target: T1, tubulin (Sus scrofa, UniProt P02550+P02554); assay: Tubulin polymerization assay; format: biochemical; details: 1 μM compound
T1 construct: purchased Cytoskeleton BK006P
Protocol: The tubulin polymerization inhibition efficacy of the compounds was measured by a tubulin polymerization assay kit (Cytoskeleton; BK006P) according to the manufacturer’s manual. Absorbance at 340 nm was measured to observe the formation of tubulin polymers using a microplate reader (Biotek; Synergy).
Supplementary Fig. 4. Tubulin polymerization inhibition by compounds 1–13 (1 μM). In the presence or absence of compounds, tubulin was incubated to polymerize at room temperature. Absorbance at 340 nm was measured in a time-dependent manner for monitoring the rate of tubulin polymerization.
Supplementary Table 2. Tubulin polymerization inhibition of the focused library. Tubulin was incubated with each compound (1 μM) and the tubulin polymerization inhibition was monitored. Vmax was calculated from tubulin polymer generation curve data of Supplementary Fig. 3.

[2] = tested on: α-tubulin monomers in RAW264.7 cells; assay: Tubulin monomer/polymer isolation and western blot; format: cell-based, murine; details: 10 μM for 6 h
Protocol: To separate soluble tubulin monomers from insoluble tubulin polymers, cells were washed very gently with PBS and incubated for 10 min at room temperature with a microtubule-stabilizing buffer {10% Tris–HCl (pH 6.8) (Acros; #77-86-1), 10% glycerol (Biosesang; GR1018-500-00), 1 mM EGTA (Sigma; E3889), 1 mM MgSO4 (Sigma; M2773), 0.1 mM EDTA (Acros; #409971000), and 1× protease inhibitor cocktail} containing additional 0.1% Triton X-100 (Sigma; T8787). The remaining insoluble tubulin polymers on the culture dish were scraped with microtubule-stabilizing buffer containing an additional 0.5% SDS (Sigma; L3771).

[3] = tested on: J774A.1 cells; assay: Flow cytometry cell cycle analysis (PI staining); format: cell-based, murine
Protocol: NF-κB SEAP reporter HEK293T cell (Invivogen; hkb-mmcl) were seeded 10,000 cells/well at white 96-well plate (Falcon; 353296). HEK293 cells were transfected with a 1 to 1 ratio of 3xAP1pGL3 (Addgene; #40342) and pRL-TK (Promega; E2241) mixture using LTX plus (Invitrogen; 15338100) and opti-MEM (Gibco; 31985070) according to the manufacturer's protocol. After 24-h compound treatment or the overexpression of α-tubulin or GFP, 40 μl of the medium was transferred to a 96-well plate and mixed with 180 μl of quanti-blue solution (Invitrogen; rep-qbs) for the measurement of NF-κB activation. We measured the absorbance at 655 nm after 2-h incubation at 37 °C. To measure the AP-1 activation, cells were washed with PBS and lysed with 20 μl of 1× passive lysis buffer for 15 min. Luciferase signals were measured by dual-luciferase reporter assay system (Progema; E1980) using a microplate reader (BioTek; Synergy HTX). Expression levels of SEAP and AP-1 were normalized by renilla luciferase signal.
J774A.1 cells were treated with each compound for the designated time and dose. The cells were trypsinized and re-suspended in PBS containing 2% FBS (Gibco; #16000-044). To measure cell cycle arrest, the same number of the re-suspended cells was stained with propidium iodide (PI) (Abcam; ab14085) according to the manufacturer’s protocol. […]

[4] = tested on: LPS-mediated NO release in BV-2 microglial cells; assay: Griess assay: cellular NO release after LPS treatment; format: cell-based, murine
Protocol: Cellular secretion of nitric oxide (NO) was quantified with the Griess assay. BV-2 cells were seeded on a clear flat bottom TC-treated 96-well plate (Corning; #3598) and sealed with breathable sealing tape (Axygen; BF-400-S). After 18 h, BV-2 cells were treated with compounds in the absence or presence of 100 ng/mL LPS (Sigma; L4391). After 24 h, 50 μL of the cell culture media was mixed with the same volume of Griess reagent {0.1% naphthylethylenediamine dihydrochloride (Sigma; #222488) and 1% sulfanilamide (Sigma; S9251) in 4% phosphoric acid (Daejung; #6532-4405)}. Absorbance at 550 nm was measured using a microplate reader (BioTek; Synergy). Sodium nitrite (Alfa Aesar; A18668) was used for standard curve generation.
Microglia are tissue-resident macrophages involved in CNS immunosurveillance[3],[39]. Microglial activation induces proinflammatory cytokine tumor necrosis factor α (TNF-α) expression, resulting in neural toxicity[5],[6]. Therefore, the inhibition of microglial activation is critical for regulating neuroinflammation. To discover anti-neuroinflammatory NCEs, we monitored the cellular release of nitric oxide (NO) in response to lipopolysaccharide (LPS) treatment as a mimic of pathogenic activation of innate immune systems upon compound treatment in BV-2 cells using the Griess assay.

[5] = tested on: TNF-α secretion in BV-2 cells; assay: TNF-α ELISA of culture medium after LPS; format: cell-based, murine; details: 10 μM
Protocol: BV-2 and RAW264.7 cells were treated with compounds in the absence or presence of LPS (100 ng/ml). After 24 h, TNF-α levels in the culture medium were measured using a TNF-α ELISA kit (R&D Systems; DY410) according to the manufacturer’s protocol. Briefly, capture antibodies were coated on 96-well Maxisorp Nunc-Immuno plates (Thermo; #439454) for 1 h and washed with PBS containing 0.05% Tween-20 (PBST) three times. The plates were blocked with 1% BSA-PBS for 1 h and washed with PBST three times. Culture medium was added to the 96-well plate for 1 h and washed with PBST three times. Biotinylated detection antibody was added to the 96-well plate for 1 h and washed with PBST three times. Streptavidin–horseradish peroxidase (HRP) was added to the plate for 20 min and washed with PBST three times. After 20 min of incubation with TMB substrate (Thermo; #002023), TMB oxidation was stopped by adding 2 N H2SO4. The absorbance at 450 nm, 540 nm, and 570 nm was measured using a microplate reader (BioTek; Synergy). The following formula was used to calculate the net signal: OD450nm–(OD540nm + OD570nm)/2.
Fig. 2 SB26019 has anti-inflammatory activity via the accumulation of tubulin monomers. SB26019 (10 μM for 6 h) regulated the mRNA levels (a) and protein levels (b) of downstream genes of NF-κB in BV-2 murine microglial cells more efficiently than the other known tubulin modulators (n = 3). c Both tubulin modulators (10 μM for 6 h) and transient Flag-tagged α-tubulin overexpression increased the total amount of tubulin monomers. d Quantification of the amount of tubulin polymer vs. monomer in (c). Tubulin modulators (10 μM for 6 h) and transient Flag-tagged α-tubulin overexpression proportionally regulated the NF-κB signaling pathway at the mRNA (e) and protein levels f in RAW264.7 murine macrophage cells (n = 3). Data are presented as the mean ± SD (ns, not significant, p > 0.05; *p < 0.05; **p < 0.01; ***p < 0.001).

T1 sequence (P02554 whole entry): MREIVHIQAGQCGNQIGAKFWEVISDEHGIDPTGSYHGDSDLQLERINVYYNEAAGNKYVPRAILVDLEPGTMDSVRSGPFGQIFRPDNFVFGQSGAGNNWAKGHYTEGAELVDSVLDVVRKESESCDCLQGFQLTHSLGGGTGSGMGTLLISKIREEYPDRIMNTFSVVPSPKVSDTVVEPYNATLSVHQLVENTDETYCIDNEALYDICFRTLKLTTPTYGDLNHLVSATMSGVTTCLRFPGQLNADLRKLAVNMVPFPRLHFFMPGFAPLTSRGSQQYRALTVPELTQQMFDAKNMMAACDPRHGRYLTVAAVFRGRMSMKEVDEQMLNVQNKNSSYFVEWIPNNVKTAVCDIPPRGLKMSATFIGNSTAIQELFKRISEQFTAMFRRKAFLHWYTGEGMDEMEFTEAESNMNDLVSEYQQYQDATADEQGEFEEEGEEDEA
T1 sequence (P02550 whole entry): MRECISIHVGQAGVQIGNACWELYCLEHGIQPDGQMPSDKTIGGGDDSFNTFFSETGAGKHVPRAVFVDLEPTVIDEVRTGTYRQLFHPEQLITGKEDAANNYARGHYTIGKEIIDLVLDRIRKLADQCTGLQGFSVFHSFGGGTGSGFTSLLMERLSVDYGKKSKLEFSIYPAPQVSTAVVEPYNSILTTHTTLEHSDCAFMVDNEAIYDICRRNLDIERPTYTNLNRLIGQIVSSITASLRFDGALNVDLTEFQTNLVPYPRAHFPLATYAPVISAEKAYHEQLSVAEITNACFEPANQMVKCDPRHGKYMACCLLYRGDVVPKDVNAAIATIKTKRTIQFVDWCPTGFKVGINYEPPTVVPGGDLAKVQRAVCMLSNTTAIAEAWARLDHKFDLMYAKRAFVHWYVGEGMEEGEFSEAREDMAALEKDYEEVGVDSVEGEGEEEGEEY

In the case of `COc1ccc2c(c1O)OC(C)(C)C=C2c1cccc2c1oc1ccccc12` [Compound 8], the “Vmax of microtubule polymerization compared to DMSO control” value [1] is reported as “significantly inhibited tubulin polymerization”, the “Total α-tubulin monomers” value [2] is reported as “increased the total α-tubulin monomers” and the Cell cycle arrest [3] is reported as “no cell cycle arrest”. The inhibition at 10 µM ([4]; Mus musculus, 10 μM, BV-2 cells, LPS, read-out: % NO inh. at 10 μM) was 102%, the IC50 ([4]; Mus musculus, BV-2 cells, 100 ng/mL LPS, 24 h) was 1130 nM and the “Anti-neuroinflammatory activity in compensated Griess assay with Taxol” value ([4]; SB26019 5 μM, with or without tubulin stabilizer Taxol) was “attenuated in the presence of Taxol in a dose-dependent manner”. The “TNF-α levels compared to that of the DMSO control” value [5] was < 50%.
